This note sets out measurements from patent publication US10947213B1 (Merck Patent GmbH, priority 2015, dated 2021).

The structures appear in SMILES notation. pIC50: −log10 of the molar value. Structures can show the parent of a compound that is named as a salt.

The experiment deals with T1, TLR7/NFKb HEK cells (Homo sapiens, UniProt Q9NYK1).
T1 construct: expressed in transfected cells; host or cells: HEK cells (TLR7/NFKb reporter line)
T1 sequence (Q9NYK1 27-1049): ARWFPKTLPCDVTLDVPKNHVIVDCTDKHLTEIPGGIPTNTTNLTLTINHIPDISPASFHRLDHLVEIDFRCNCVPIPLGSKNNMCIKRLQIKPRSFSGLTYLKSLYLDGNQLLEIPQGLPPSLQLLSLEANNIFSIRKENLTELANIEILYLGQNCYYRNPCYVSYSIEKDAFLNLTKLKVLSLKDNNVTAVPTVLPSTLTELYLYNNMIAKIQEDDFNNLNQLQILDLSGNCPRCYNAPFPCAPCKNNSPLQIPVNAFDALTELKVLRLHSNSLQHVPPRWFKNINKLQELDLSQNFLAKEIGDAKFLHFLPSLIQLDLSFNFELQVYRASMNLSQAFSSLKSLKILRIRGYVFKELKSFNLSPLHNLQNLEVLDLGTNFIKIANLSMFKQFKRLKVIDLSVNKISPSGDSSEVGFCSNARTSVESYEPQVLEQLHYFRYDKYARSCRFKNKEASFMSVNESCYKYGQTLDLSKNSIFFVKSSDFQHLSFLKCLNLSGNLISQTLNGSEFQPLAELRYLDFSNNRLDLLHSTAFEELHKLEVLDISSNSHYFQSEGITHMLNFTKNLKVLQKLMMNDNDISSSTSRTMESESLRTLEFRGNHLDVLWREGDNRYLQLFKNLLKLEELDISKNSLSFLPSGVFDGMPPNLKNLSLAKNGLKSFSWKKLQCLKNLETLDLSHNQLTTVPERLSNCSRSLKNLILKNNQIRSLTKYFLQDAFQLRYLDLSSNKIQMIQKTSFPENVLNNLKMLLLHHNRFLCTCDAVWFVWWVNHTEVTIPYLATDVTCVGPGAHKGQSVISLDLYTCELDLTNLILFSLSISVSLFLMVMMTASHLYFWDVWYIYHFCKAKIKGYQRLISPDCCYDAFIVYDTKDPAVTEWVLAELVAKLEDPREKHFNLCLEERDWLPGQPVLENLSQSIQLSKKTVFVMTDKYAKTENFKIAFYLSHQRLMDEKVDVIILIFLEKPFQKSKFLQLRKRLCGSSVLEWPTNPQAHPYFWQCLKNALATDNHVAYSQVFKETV
Nature of the experiment: HEK Cell Assay (TLR7/NFKb reporter, Steady-Glo luciferase readout). Format: cell-based. The note with it: 30 min compound preincubation, then R*48 agonist for 5 hours, read-out: Potency. In short, it runs like this:
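Steady-Glo luminescence after 5 h stimulation with R*48 agonist, following 30 min compound preincubation. Assay run in HEK cells carrying a TLR7/NFKb luciferase reporter, plated at 5000 cells/well and grown 24 h at 37° C (10% CO2) before treatment.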
In the case of `CCCN1CCN(C[C@H]2CN(c3ccnc4nccnc34)C[C@@H](C)O2)CC1` [Compound 52, (2R,6S)-2-methyl-6-((4-propylpiperazin-1-yl)methyl)-4-(pyrido[2,3-b]pyrazin-8-yl)morpholine], the pIC50 was greater than 6.00. As for `CNCC(=O)N[C@@H]1C[C@H](C)CN(c2ccc(C#N)c3nccnc23)C1` [Compound 28, N-((3R,5S)-1-(8-cyanoquinoxalin-5-yl)-5-methylpiperidin-3-yl)-2-(methylamino)acetamide hydrochloride], the pIC50 is greater than 6.00.

On to `CC(C(=O)N[C@@H]1C[C@H](C)CN(c2ccc(C(F)(F)F)c3ncccc23)C1)N1CCN(C)CC1` (stereo partly drawn) [Compound 516, 2-(4-Methyl-piperazin-1-yl)-N-[(3R,5S)-5-methyl-1-(8-trifluoromethyl-quinolin-5-yl)-piperidin-3-yl]-propionamide], for which the pIC50 is greater than 6.00.

For `CCN1CCC[C@H]1C(=O)NCC1CCN(c2ccc(C#N)c3ncccc23)CC1` [Compound 435, (S)-1-Ethyl-pyrrolidine-2-carboxylic Acid [1-(8-cyano-quinolin-5-yl)-piperidin-4-ylmethyl]-amide], the pIC50 was greater than 6.00. Under `CC1(C)C[C@@H](NC(=O)CO)CN(c2ccc(C#N)c3nccnc23)C1` [Compound 218, N-[(3R)-1-(8-cyanoquinoxalin-5-yl)-5,5-dimethylpiperidin-3-yl]-2-hydroxyacetamide] stands 5.00 to 6.00; under `CC(C)[C@@H](N)C(=O)N[C@@H]1C[C@H](C)CN(c2ccc(C#N)c3nccnc23)C1` [Compound 102, (2R)-2-amino-N-[(3R,5S)-1-(8-cyanoquinoxalin-5-yl)-5-methylpiperidin-3-yl]-3-methylbutanamide], greater than 6.00. Take `CC(C)C(=O)NC1CCN(C[C@H]2CN(c3ccnc4nccnc34)C[C@@H](C)O2)CC1` [Compound 61, N-(1-(((2S,6R)-6-methyl-4-(pyrido[2,3-b]pyrazin-8-yl)morpholin-2-yl)methyl)piperidin-4-yl)isobutyramide]: the pIC50 is 5.00 to 6.00. Turning to `C[C@H]1C[C@@H](NC(=O)CC2CC2(F)F)CN(c2ccc(C(F)F)c3ncccc23)C1` (stereo partly drawn) [Compound 310, 2-(2,2-difluorocyclopropyl)-N-[(3R,5S)-1-[8-(difluoromethyl)quinolin-5-yl]-5-methylpiperidin-3-yl]acetamide], the pIC50 is greater than 6.00.

`CN(C)CC(=O)N[C@H]1CN(c2ccc(C#N)c3nccnc23)CC(C)(C)C1` [Compound 217, N-[(3R)-1-(8-cyanoquinoxalin-5-yl)-5,5-dimethylpiperidin-3-yl]-2-(dimethylamino)acetamide]: the pIC50 is greater than 6.00.

For the molecule `O=C(CN1CCCCC1)NCC1CCN(c2ccc(C(F)(F)F)c3ncccc23)CC1` [Compound 448, 2-Piperidin-1-yl-N-[1-(8-trifluoromethyl-quinolin-5-yl)-piperidin-4-ylmethyl]-acetamide], the pIC50 was 5.00 to 6.00.

On to `C[C@H]1C[C@@H](NC(=O)CC2CCN(C)CC2)CN(c2ccc(C(F)(F)F)c3nccnc23)C1` [Compound 253, N-[(3R,5S)-5-methyl-1-[8-(trifluoromethyl)quinoxalin-5-yl]piperidin-3-yl]-2-(1-methylpiperidin-4-yl)acetamide], for which the pIC50 was greater than 6.00. For the molecule `O=C(NCCN1CCCCC1)C1CCN(c2ccc(C(F)(F)F)c3ncccc23)CC1` [Compound 441, 1-(8-Trifluoromethyl-quinolin-5-yl)-piperidine-4-carboxylic Acid (2-piperidin-1-yl-ethyl)-amide], the pIC50 is greater than 6.00. Next, `CN(C)CCNC(=O)C1CCN(c2ccc(C#N)c3ncccc23)CC1` [Compound 415, 1-(8-Cyano-quinolin-5-yl)-piperidine-4-carboxylic Acid (2-dimethylamino-ethyl)-amide]: greater than 6.00; `C[C@H]1C[C@@H](NC(=O)C2(N)COC2)CN(c2ccnc3nccnc23)C1` [Compound 128, 3-amino-N-[(3R,5S)-5-methyl-1-[pyrido[2,3-b]pyrazin-8-yl]piperidin-3-yl]oxetane-3-carboxamide]: less than 5.00; `N#Cc1ccc(N2CC(N)CC(F)(F)C2)c2nccnc12` (single isomer, unassigned) [Compound 76]: 5.00 to 6.00.

For `CN(C)CC(=O)NC1CN(c2ccc(C#N)c3ncccc23)CC(F)(F)C1` (stereo not shown) [Compound 425, N-[1-(8-Cyano-quinolin-5-yl)-5,5-difluoro-piperidin-3-yl]-2-dimethylamino-acetamide], the pIC50 was greater than 6.00. Next, `CN(C)C(=O)CCC(=O)N1CCN(c2ccc(C#N)c3nccnc23)CC1` [Compound 454, 4-[4-(8-Cyano-quinoxalin-5-yl)-piperazin-1-yl]-N,N-dimethyl-4-oxo-butyramide]: 5.00 to 6.00; `CCN(CC)CCNC(=O)C1CCN(c2ccc(C(F)(F)F)c3ncccc23)CC1` [Compound 446, 1-(8-Trifluoromethyl-quinolin-5-yl)-piperidine-4-carboxylic Acid (2-diethylamino-ethyl)-amide]: greater than 6.00. Under `C[C@H]1C[C@@H](NC(=O)CC2CCCN(C)C2)CN(c2ccc(C(F)F)c3nccnc23)C1` (stereo partly drawn) [Compound 318, N-[(3R,5S)-1-[8-(difluoromethyl)quinoxalin-5-yl]-5-methylpiperidin-3-yl]-2-(1-methylpiperidin-3-yl)acetamide] stands greater than 6.00; under `O=C(NCCN1CCCCC1)C1CCN(c2ccnc3nccnc23)CC1` [Compound 373, 1-Pyrido[2,3-b]pyrazin-8-yl-piperidine-4-carboxylic acid (2-piperidin-1-yl-ethyl)-amide], 5.00 to 6.00; under `C[C@H]1C[C@@H](NC(=O)C(N)C(F)(F)F)CN(c2ccc(C(N)=O)c3ncccc23)C1` (single isomer, unassigned) [Compound 184], less than 5.00. Regarding `C[C@H]1C[C@@H](NC2CCN(C)C2=O)CN(c2ccc(C(F)(F)F)c3nccnc23)C1` (single isomer, unassigned) [Compound 352], the pIC50 is greater than 6.00. Next, `C[C@H]1C[C@@H](NC(=O)[C@@H](N)Cc2cccnc2)CN(c2ccnc3nccnc23)C1` [Compound 118, (2S)-2-amino-N-[(3R,5S)-5-methyl-1-[pyrido[2,3-b]pyrazin-8-yl]piperidin-3-yl]-3-(pyridin-3-yl)propanamide]: 5.00 to 6.00; `CC(CN(C)C)NC(=O)C1CCN(c2ccc(C#N)c3ncccc23)CC1` (stereo not shown) [Compound 420, 1-(8-Cyano-quinolin-5-yl)-piperidine-4-carboxylic Acid (2-dimethylamino-1-methyl-ethyl)-amide]: greater than 6.00; `C[C@H]1C[C@@H](NCC(N)=O)CN(c2ccc(C#N)c3nccnc23)C1` [Compound 122, 2-[[(3R,5S)-1-(8-cyanoquinoxalin-5-yl)-5-methylpiperidin-3-yl]amino]acetamide]: greater than 6.00. Regarding `C[C@@H]1CN(c2ccnc3ccccc23)C[C@H](C)O1` [Compound 45, (2S,6R)-2,6-dimethyl-4-(quinolin-4-yl)morpholine], the pIC50 was less than 5.00. Under `N#Cc1ccc(N2CC(NC(=O)CCC(=O)N3CCC3)CC(C(F)(F)F)C2)c2cccnc12` (single isomer, unassigned) [Compound 495] stands 5.00 to 6.00. Regarding `CC(C)(C)CC(=O)N[C@H]1C[C@@H](C(F)(F)F)CN(c2ccc(C#N)c3nccnc23)C1` (relative stereo) [Compound 85, cis-N-[1-(8-cyanoquinoxalin-5-yl)-5-(trifluoromethyl)piperidin-3-yl]-3,3-dimethylbutanamide], the pIC50 is greater than 6.00. Next, `C[C@@H]1CN(c2ccc(C#N)c3nccnc23)C[C@H](CN2CCN(C)CC2)O1` [Compound 50, 8-((2R,6S)-2-methyl-6-((4-methylpiperazin-1-yl)methyl)morpholino)quinoxaline-5-carbonitrile]: greater than 6.00.

As to `CCN(C)CC(=O)NCC1CCN(c2ccnc3nccnc23)CC1` [Compound 408, 2-(Ethyl-methyl-amino)-N-(1-pyrido[2,3-b]pyrazin-8-yl-piperidin-4-ylmethyl)-acetamide], the pIC50 is 5.00 to 6.00. In the case of `C[C@H]1C[C@@H](NC(=O)CN2CCCN(C)CC2)CN(c2ccc(C(F)F)c3nccnc23)C1` [Compound 326, N-[(3R,5S)-1-[8-(difluoromethyl)quinoxalin-5-yl]-5-methylpiperidin-3-yl]-2-(4-methyl-1,4-diazepan-1-yl)acetamide], the pIC50 is greater than 6.00.
